Results from paper PMC4411097, “Pachymic Acid Inhibits Growth and Induces Apoptosis of Pancreatic Cancer In Vitro and In Vivo by Targeting ER Stress” (PLoS ONE, 2015).

Tested on: MIA PaCa-2 cells
Assay: DNA microarray analysis (Affymetrix Human PrimeView)
Assay type: cell-based

For `C=C(CC[C@@H](C(=O)O)[C@H]1[C@H](O)C[C@@]2(C)C3=C(CC[C@]12C)[C@@]1(C)CC[C@H](OC(C)=O)C(C)(C)[C@@H]1CC3)C(C)C` [PA, Pachymic acid], the “Fold-Change (MiaPaca-2 * PA vs. MiaPaca-2 * control), HSPA1B” value (probeset 11729120_x_at) was 1.90, the “Mean (MiaPaca-2 * PA), HSPA1B” value (probeset 11729120_x_at) was 11.15 and the “Fold-Change (MiaPaca-2 * PA vs. MiaPaca-2 * control), ADAMTS4” value (probeset 11730923_x_at) was 2.20. The “Mean (MiaPaca-2 * PA), ADAMTS4” value (probeset 11730923_x_at) was 8.77, the “Fold-Change (MiaPaca-2 * PA vs. MiaPaca-2 * control), RCAN1” value (probeset 11733797_a_at) was 1.68 and the “Mean (MiaPaca-2 * PA), RCAN1” value (probeset 11733797_a_at) was 9.17. For the same compound, the “Fold-Change (MiaPaca-2 * PA vs. MiaPaca-2 * control), SOCS2” value (probeset 11735148_a_at) was 1.78, the “Mean (MiaPaca-2 * PA), SOCS2” value (probeset 11735148_a_at) was 6.08 and the “Fold-Change (MiaPaca-2 * PA vs. MiaPaca-2 * control), C17orf91” value (probeset 11736304_a_at) was 1.70. The “Mean (MiaPaca-2 * PA), C17orf91” value (probeset 11736304_a_at) was 6.00, the “Fold-Change (MiaPaca-2 * PA vs. MiaPaca-2 * control), C17orf91” value (probeset 11736305_x_at) was 1.71 and the “Mean (MiaPaca-2 * PA), C17orf91” value (probeset 11736305_x_at) was 6.44. For the same compound, the “Fold-Change (MiaPaca-2 * PA vs. MiaPaca-2 * control), SERPINB8” value (probeset 11737922_a_at) was 2.08, the “Mean (MiaPaca-2 * PA), SERPINB8” value (probeset 11737922_a_at) was 8.90 and the “Fold-Change (MiaPaca-2 * PA vs. MiaPaca-2 * control), FLJ36031” value (probeset 11739443_a_at) was 1.69. The “Mean (MiaPaca-2 * PA), FLJ36031” value (probeset 11739443_a_at) was 6.38, the “Fold-Change (MiaPaca-2 * PA vs. MiaPaca-2 * control), TNFRSF9” value (probeset 11740393_at) was 2.27 and the “Mean (MiaPaca-2 * PA), TNFRSF9” value (probeset 11740393_at) was 8.01. For the same compound, the “Fold-Change (MiaPaca-2 * PA vs. MiaPaca-2 * control), GBP3” value (probeset 11741911_a_at) was 1.86, the “Mean (MiaPaca-2 * PA), GBP3” value (probeset 11741911_a_at) was 6.08 and the “Fold-Change (MiaPaca-2 * PA vs. MiaPaca-2 * control), CXCL2” value (probeset 11744127_at) was 2.45. The “Mean (MiaPaca-2 * PA), CXCL2” value (probeset 11744127_at) was 10.98, the “Fold-Change (MiaPaca-2 * PA vs. MiaPaca-2 * control), CXCL2” value (probeset 11744128_x_at) was 2.30 and the “Mean (MiaPaca-2 * PA), CXCL2” value (probeset 11744128_x_at) was 11.01. For the same compound, the “Fold-Change (MiaPaca-2 * PA vs. MiaPaca-2 * control), HSPA1A” value (probeset 11744413_x_at) was 2.45, the “Mean (MiaPaca-2 * PA), HSPA1A” value (probeset 11744413_x_at) was 10.47 and the “Fold-Change (MiaPaca-2 * PA vs. MiaPaca-2 * control), SAMD4A” value (probeset 11745209_a_at) was 1.79. The “Mean (MiaPaca-2 * PA), SAMD4A” value (probeset 11745209_a_at) was 6.54, the “Fold-Change (MiaPaca-2 * PA vs. MiaPaca-2 * control), SERPINE1” value (probeset 11746856_a_at) was 1.78 and the “Mean (MiaPaca-2 * PA), SERPINE1” value (probeset 11746856_a_at) was 7.81. For the same compound, the “Fold-Change (MiaPaca-2 * PA vs. MiaPaca-2 * control), UPP1” value (probeset 11747820_x_at) was 1.93, the “Mean (MiaPaca-2 * PA), UPP1” value (probeset 11747820_x_at) was 8.45 and the “Fold-Change (MiaPaca-2 * PA vs. MiaPaca-2 * control), SERPINB8” value (probeset 11748180_a_at) was 2.13. For the same compound, the “Mean (MiaPaca-2 * PA), SERPINB8” value (probeset 11748180_a_at) was 10.10, the “Fold-Change (MiaPaca-2 * PA vs. MiaPaca-2 * control), UPP1” value (probeset 11748775_a_at) was 1.75 and the “Mean (MiaPaca-2 * PA), UPP1” value (probeset 11748775_a_at) was 10.33. The “Fold-Change (MiaPaca-2 * PA vs. MiaPaca-2 * control), FOS” value (probeset 11749291_a_at) was 1.74, the “Mean (MiaPaca-2 * PA), FOS” value (probeset 11749291_a_at) was 6.87 and the “Fold-Change (MiaPaca-2 * PA vs. MiaPaca-2 * control), GBP1” value (probeset 11749773_x_at) was 1.92. For the same compound, the “Mean (MiaPaca-2 * PA), GBP1” value (probeset 11749773_x_at) was 5.41, the “Fold-Change (MiaPaca-2 * PA vs. MiaPaca-2 * control), CYR61” value (probeset 11749905_a_at) was 2.32 and the “Mean (MiaPaca-2 * PA), CYR61” value (probeset 11749905_a_at) was 9.84. The “Fold-Change (MiaPaca-2 * PA vs. MiaPaca-2 * control), HSPA1A /// HSPA1B” value (probeset 11750411_x_at) was 2.09, the “Mean (MiaPaca-2 * PA), HSPA1A /// HSPA1B” value (probeset 11750411_x_at) was 10.73 and the “Fold-Change (MiaPaca-2 * PA vs. MiaPaca-2 * control), MIR17HG” value (probeset 11752442_a_at) was 1.88. For the same compound, the “Mean (MiaPaca-2 * PA), MIR17HG” value (probeset 11752442_a_at) was 6.16, the “Fold-Change (MiaPaca-2 * PA vs. MiaPaca-2 * control), GBP1” value (probeset 11752931_x_at) was 1.83 and the “Mean (MiaPaca-2 * PA), GBP1” value (probeset 11752931_x_at) was 5.47. The “Fold-Change (MiaPaca-2 * PA vs. MiaPaca-2 * control), EGR1” value (probeset 11752940_a_at) was 1.69, the “Mean (MiaPaca-2 * PA), EGR1” value (probeset 11752940_a_at) was 10.59 and the “Fold-Change (MiaPaca-2 * PA vs. MiaPaca-2 * control), DUSP1” value (probeset 11752993_a_at) was 1.78. For the same compound, the “Mean (MiaPaca-2 * PA), DUSP1” value (probeset 11752993_a_at) was 7.26, the “Fold-Change (MiaPaca-2 * PA vs. MiaPaca-2 * control), TNFSF4” value (probeset 11753073_a_at) was 1.71 and the “Mean (MiaPaca-2 * PA), TNFSF4” value (probeset 11753073_a_at) was 5.89. The “Fold-Change (MiaPaca-2 * PA vs. MiaPaca-2 * control), SLC3A2” value (probeset 11753435_x_at) was 1.69, the “Mean (MiaPaca-2 * PA), SLC3A2” value (probeset 11753435_x_at) was 8.06 and the “Fold-Change (MiaPaca-2 * PA vs. MiaPaca-2 * control), IL8” value (probeset 11754026_a_at) was 2.84. For the same compound, the “Mean (MiaPaca-2 * PA), IL8” value (probeset 11754026_a_at) was 11.16, the “Fold-Change (MiaPaca-2 * PA vs. MiaPaca-2 * control), CXCL1” value (probeset 11754114_a_at) was 2.46 and the “Mean (MiaPaca-2 * PA), CXCL1” value (probeset 11754114_a_at) was 11.01. The “Fold-Change (MiaPaca-2 * PA vs. MiaPaca-2 * control), HBEGF” value (probeset 11755981_a_at) was 1.90, the “Mean (MiaPaca-2 * PA), HBEGF” value (probeset 11755981_a_at) was 4.80 and the “Fold-Change (MiaPaca-2 * PA vs. MiaPaca-2 * control), HSPA6 /// HSPA7” value (probeset 11757367_s_at) was 19.93. For the same compound, the “Mean (MiaPaca-2 * PA), HSPA6 /// HSPA7” value (probeset 11757367_s_at) was 9.17, the “Fold-Change (MiaPaca-2 * PA vs. MiaPaca-2 * control), NFKBIZ” value (probeset 11757513_at) was 2.08 and the “Mean (MiaPaca-2 * PA), NFKBIZ” value (probeset 11757513_at) was 10.08. For the same compound, the “Fold-Change (MiaPaca-2 * PA vs. MiaPaca-2 * control), DDIT3” value (probeset 11758347_s_at) was 1.70, the “Mean (MiaPaca-2 * PA), DDIT3” value (probeset 11758347_s_at) was 7.10 and the “Fold-Change (MiaPaca-2 * PA vs. MiaPaca-2 * control), MIR17HG” value (probeset 11758429_s_at) was 1.80. For the same compound, the “Mean (MiaPaca-2 * PA), MIR17HG” value (probeset 11758429_s_at) was 4.78, the “Fold-Change (MiaPaca-2 * PA vs. MiaPaca-2 * control), TNFSF18” value (probeset 11759254_at) was 1.84 and the “Mean (MiaPaca-2 * PA), TNFSF18” value (probeset 11759254_at) was 8.90. For the same compound, the “Fold-Change (MiaPaca-2 * PA vs. MiaPaca-2 * control), NCRNA00275” value (probeset 11759550_at) was 1.82, the “Mean (MiaPaca-2 * PA), NCRNA00275” value (probeset 11759550_at) was 7.61 and the “Fold-Change (MiaPaca-2 * PA vs. MiaPaca-2 * control), SAT1” value (probeset 11760200_a_at) was 1.75. The “Mean (MiaPaca-2 * PA), SAT1” value (probeset 11760200_a_at) was 6.19, the “Fold-Change (MiaPaca-2 * PA vs. MiaPaca-2 * control), EBNA1BP2” value (probeset 11760295_at) was 1.73 and the “Mean (MiaPaca-2 * PA), EBNA1BP2” value (probeset 11760295_at) was 4.62. For the same compound, the “Fold-Change (MiaPaca-2 * PA vs. MiaPaca-2 * control), GRAMD1B” value (probeset 11762010_a_at) was 1.80, the “Mean (MiaPaca-2 * PA), GRAMD1B” value (probeset 11762010_a_at) was 7.49 and the “Fold-Change (MiaPaca-2 * PA vs. MiaPaca-2 * control), CASP1” value (probeset 11763186_at) was 1.70. The “Mean (MiaPaca-2 * PA), CASP1” value (probeset 11763186_at) was 5.56, the “Fold-Change (MiaPaca-2 * PA vs. MiaPaca-2 * control), IL8” value (probeset 11763226_x_at) was 2.95 and the “Mean (MiaPaca-2 * PA), IL8” value (probeset 11763226_x_at) was 11.12. The “Fold-Change (MiaPaca-2 * PA vs. MiaPaca-2 * control), CXCL1 /// CXCL2” value (probeset 11763250_x_at) was 2.26, the “Mean (MiaPaca-2 * PA), CXCL1 /// CXCL2” value (probeset 11763250_x_at) was 10.74 and the “Fold-Change (MiaPaca-2 * PA vs. MiaPaca-2 * control), GRAMD1B” value (probeset 11763323_x_at) was 1.71. The “Mean (MiaPaca-2 * PA), GRAMD1B” value (probeset 11763323_x_at) was 6.75.
